Data: patent publication US11780845B2 (Relay Therapeutics, Inc., priority 2019, dated 2023)

Tests used:
FGFR2 = FGFR2 (Homo sapiens (Human), UniProt P21802); test: Biochemical FGFR2 Caliper assay
SNU-16 = test: Cell SNU-16 assay; assay type: cell-based
[1] = Homo sapiens, SNU-16, SNU-16 cells

Sequence of FGFR2 (P21802 22-821): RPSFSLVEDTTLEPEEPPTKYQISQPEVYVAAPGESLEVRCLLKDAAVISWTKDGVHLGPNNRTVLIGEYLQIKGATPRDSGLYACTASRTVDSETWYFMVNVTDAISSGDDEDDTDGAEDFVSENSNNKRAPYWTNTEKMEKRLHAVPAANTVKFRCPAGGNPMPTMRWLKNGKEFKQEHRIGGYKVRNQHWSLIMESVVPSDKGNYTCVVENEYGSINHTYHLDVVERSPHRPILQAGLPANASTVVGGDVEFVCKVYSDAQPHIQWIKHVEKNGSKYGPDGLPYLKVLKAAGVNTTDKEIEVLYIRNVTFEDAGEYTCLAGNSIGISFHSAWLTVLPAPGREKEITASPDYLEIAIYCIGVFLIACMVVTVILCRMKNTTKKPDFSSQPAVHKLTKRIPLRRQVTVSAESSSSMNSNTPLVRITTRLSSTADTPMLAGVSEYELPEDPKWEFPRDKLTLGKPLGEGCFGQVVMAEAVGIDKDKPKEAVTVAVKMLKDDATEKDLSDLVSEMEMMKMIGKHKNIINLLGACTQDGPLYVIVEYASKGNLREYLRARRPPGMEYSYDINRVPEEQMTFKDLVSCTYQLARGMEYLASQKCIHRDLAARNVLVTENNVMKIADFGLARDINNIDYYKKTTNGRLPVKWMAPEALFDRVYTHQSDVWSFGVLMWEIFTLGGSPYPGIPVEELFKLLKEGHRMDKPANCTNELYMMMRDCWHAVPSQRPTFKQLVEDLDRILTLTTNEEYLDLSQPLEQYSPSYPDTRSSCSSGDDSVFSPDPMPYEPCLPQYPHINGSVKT

Row | SMILES | IC50 (FGFR2) [nM] | IC50 (SNU-16; [1]) [nM] | IC50 (SNU-16; SNU-16 cells) [nM]
1 | CC(=O)C(=O)Nc1ccc(-c2c(-c3ccc(C(=O)N4CCc5ccccc54)cc3)c3c(N)ncnc3n2C)cc1 [Example 980] | < 100 | ≤ 100 | 
2 | C=C(C)C(=O)Nc1ccc(-c2c(-c3ccc(C(=O)NCC4CCC4)c(OC)n3)c3c(N)ncnc3n2C)cc1 [Example 983] | < 100 | ≤ 100 | 
3 | C=Cc1ncc(-c2ccc(-c3c(-c4ccc(Oc5nccc(C)n5)cc4)c4c(N)ncnc4n3C)cc2)s1 [Example 984] | < 100 | ≤ 100 | 
4 | C=CC(=O)N1CC=C(c2ccc(-c3c(-c4ccc(Oc5cccc(C)n5)cc4)c4c(N)ncnc4n3C)cc2)C1 [Example 989] | 1000 to 100000 | 250 to 1000 | 
5 | C=CC(=O)Nc1ccc(-c2c(-c3ccc(C(=O)NCC(C)C)cc3)c3c(N)ncnc3n2C)cc1 [Example 990] | < 100 | ≤ 100 | 
6 | C=C(C)C(=O)Nc1ccc(-c2c(C3=CC[C@H](C(=O)N4CCC[C@@H]4C)CC3)c3c(N)ncnc3n2C)cc1 [Example 991] | < 100 | ≤ 100 | 
7 | C=C(C)C(=O)Nc1ccc(-c2c(C3=CC[C@@H](C(=O)N4CCCC[C@H]4C)CC3)c3c(N)ncnc3n2C)cc1 [Example 992] | 1000 to 100000 | 100 to 250 | 
8 | C=C(C)C(=O)Nc1ccc(-c2c(C3=CC[C@@H](S(=O)(=O)N4CCCC4)CC3)c3c(N)ncnc3n2C)cc1 [Example 993] | < 100 | ≤ 100 | 
9 | C=C(C)C(=O)Nc1ccc(-c2c(C3=CC[C@H](C(=O)N4CCCC[C@H]4C)CC3)c3c(N)ncnc3n2C)cc1 [Example 994] | 1000 to 100000 | 100 to 250 | 
10 | C=C(C)C(=O)Nc1ccc(-c2c(C3=CC[C@H](S(=O)(=O)N4CCCC4)CC3)c3c(N)ncnc3n2C)cc1 [Example 995] | 1000 to 100000 | 250 to 1000 | 
11 | C=C(C)C(=O)Nc1ccc(-c2c(C3=CC[C@@H](C(=O)N4CC5CC4C5)CC3)c3c(N)ncnc3n2C)cc1 [Example 996] | 250 to 1000 | 100 to 250 | 
12 | C=C(C)C(=O)Nc1ccc(-c2c(C3=CC[C@H](C(=O)N4CC5CC4C5)CC3)c3c(N)ncnc3n2C)cc1 [Example 997] | 1000 to 100000 | 250 to 1000 | 
13 | C=C(C)C(=O)Nc1ccc(-c2c(C3=CC[C@@H](C(=O)N4CCCC45CCC5)CC3)c3c(N)ncnc3n2C)cc1 [Example 998] | < 100 | ≤ 100 | 
14 | C=C(C)C(=O)Nc1ccc(-c2c(C3=CC[C@H](C(=O)N4CCCC45CCC5)CC3)c3c(N)ncnc3n2C)cc1 [Example 999] | < 100 | ≤ 100 | 
15 | C#Cc1ncc(-c2c(-c3ccc(Oc4nccc(C)n4)cc3)c3c(N)ncnc3n2C)cn1 [Example 1000] | 1000 to 100000 |  | 250 to 1000
16 | C=C(C)C(=O)Nc1ccc(-c2c(C3=CC[C@H](C(=O)N4CCCC4)CC3)c3c(N)ncnc3n2C)c(F)c1 [Example 1001] | < 100 | ≤ 100 | 
17 | C=C(C)C(=O)Nc1ccc(-c2c(C3=CC[C@@H](C(=O)N4CCCC4)CC3)c3c(N)ncnc3n2C)c(F)c1 [Example 1002] | < 100 | ≤ 100 | 
18 | C=C(C)C(=O)Nc1ccc(-c2c(C3=CC[C@@H](C(=O)N4CCC[C@@H]4C)CC3)c3c(N)ncnc3n2C)cc1 [Example 1003] | 250 to 1000 | 100 to 250 | 
19 | C=CC(=O)N1CCN(c2cccc(-c3c(-c4ccc(Oc5cccc(C)n5)cc4)c4c(N)ncnc4n3C)c2)CC1 [Example 1004] | < 100 | ≤ 100 | 

Row | SMILES | IC50 (FGFR2) [nM] | IC50 (SNU-16; [1]) [nM] | IC50 (SNU-16; SNU-16 cells) [nM]
20 | C=CC(=O)NCc1cccc(-c2c(-c3ccc(Oc4cccc(C)n4)cc3)c3c(N)ncnc3n2C)c1 [Example 1005] | 250 to 1000 | 100 to 250 | 
21 | C=C(C)C(=O)Nc1ccc(-c2c(C3=CC[C@H](C(=O)N4CCC[C@H]4C)CC3)c3c(N)ncnc3n2C)cc1 [Example 1006] | 250 to 1000 | 250 to 1000 | 
22 | C#CCCCCn1c(-c2ccc(NC(=O)C(=C)C)cc2)c(-c2ccc(Oc3nccc(C)n3)c(F)c2)c2c(N)ncnc21 [Example 1007] | < 100 | ≤ 100 | 
23 | C=C(C)C(=O)Nc1ccc(-c2c(C3=CC[C@@H](C(=O)N4CCC[C@H]4C)CC3)c3c(N)ncnc3n2C)cc1 [Example 1008] | 100 to 250 | 100 to 250 | 
24 | C=C(C)C(=O)Nc1ccc(-c2c(C3=CC[C@@](C)(C(=O)N4CCCC4)CC3)c3c(N)ncnc3n2C)cc1 [Example 1009] | 1000 to 100000 |  | 250 to 1000
25 | C=C(C)C(=O)Nc1nn(C)c(-c2c(-c3ccc(Oc4nccc(C)n4)cc3)c3c(N)ncnc3n2C)c1C [Example 1010] | 1000 to 100000 | 250 to 1000 | 
26 | C=C(C)C(=O)Nc1ccc(-c2c(C3=CC[C@@H](C(=O)N4CCCC45COC5)CC3)c3c(N)ncnc3n2C)c(F)c1 [Example 1011] | < 100 | ≤ 100 | 
27 | C=C(C)C(=O)Nc1ccc(-c2c(C3=CC[C@H](C(=O)N4CCCC45COC5)CC3)c3c(N)ncnc3n2C)c(F)c1 [Example 1012] | 250 to 1000 | 100 to 250 | 
28 | Cc1ccnc(Oc2ccc(-c3c(-c4ccc(NC(=O)/C=C/CN(C)C)cc4)n(C)c4ncnc(N)c34)cc2F)n1 [Example 1013] | < 100 | ≤ 100 | 
29 | C=C(C)C(=O)Nc1ccc(-c2c(C3=CC[C@H](C(=O)N4CCCC4)OC3)c3c(N)ncnc3n2C)cc1 [Example 1014] | < 100 | ≤ 100 | 
30 | C=C(C)C(=O)Nc1ccc(-c2c(C3=CC[C@@H](C(=O)N4CCCC4)OC3)c3c(N)ncnc3n2C)cc1 [Example 1015] | 1000 to 100000 | 1000 to 100000 | 
31 | C=C(C)C(=O)Nc1ccc(-c2c(C3=CC[C@@H](C(=O)N4CCCC4)CC3)c3c(N)ncnc3n2C)c(Cl)c1 [Example 1016] | 1000 to 100000 | 1000 to 100000 | 
32 | C=C(C)C(=O)Nc1ccc(-c2c(C3=CC[C@H](C(=O)N4CCCC4)CC3)c3c(N)ncnc3n2C)c(Cl)c1 [Example 1017] | < 100 | ≤ 100 | 
33 | C=CC(=O)Nc1cccc(-c2c(C3=CC[C@H](C(=O)N4CCCC4)CC3)c3c(N)ncnc3n2C)c1 [Example 1018] | < 100 | ≤ 100 | 
34 | C=CC(=O)Nc1cccc(-c2c(C3=CC[C@@H](C(=O)N4CCCC4)CC3)c3c(N)ncnc3n2C)c1 [Example 1019] | < 100 | ≤ 100 | 
35 | C=CC(=O)Nc1ccc(-c2c(-c3ccc(C(=O)NCC4(F)COC4)cc3)c3c(N)ncnc3n2C)cc1 [Example 1020] | 100 to 250 | ≤ 100 | 
36 | C=C(C)C(=O)Nc1cccc(-c2c(-c3ccc(C(=O)NCC4(F)COC4)cc3)c3c(N)ncnc3n2C)c1 [Example 1021] | < 100 | ≤ 100 | 
37 | C=C(C)C(=O)Nc1ccc(-c2c(C3=CC[C@@H](C(=O)NCC4(F)COC4)CC3)c3c(N)ncnc3n2C)cc1 [Example 1022] | 250 to 1000 | 1000 to 100000 | 
38 | C=C(C)C(=O)Nc1ccc(-c2c(C3=CC[C@H](C(=O)NCC4(F)COC4)CC3)c3c(N)ncnc3n2C)cc1 [Example 1023] | 1000 to 100000 | 1000 to 100000 | 

Row | SMILES | IC50 (FGFR2) [nM] | IC50 (SNU-16; [1]) [nM] | IC50 (SNU-16; SNU-16 cells) [nM]
39 | C=C(C)C(=O)Nc1ccc(-c2c(C3=CC[C@](C)(C(=O)N4CCCC4)CC3)c3c(N)ncnc3n2C)cc1 [Example 1024] | 250 to 1000 |  | 250 to 1000
40 | C=C(C)C(=O)Nc1ccc(-c2c(C3=CC[C@@](C)(C(=O)N4CCCC4)CC3)c3c(N)ncnc3n2C)cc1 [Example 1025] | 1000 to 100000 |  | 1000 to 100000
41 | C=C(C)C(=O)Nc1ccc(-c2c(C3=CC[C@](C)(C(=O)N4CCCC4)CC3)c3c(N)ncnc3n2C)cc1 [Example 1026] | 1000 to 100000 |  | 1000 to 100000
42 | C=CC(=O)Nc1cccc(-c2c(-c3ccc4c(c3)CCCN4C)c3c(N)ncnc3n2C)c1 [Example 1027] | 1000 to 100000 | 1000 to 100000 | 
43 | C=CC(=O)Nc1cccc(-c2c(-c3ccc(C(=O)NCC4(F)COC4)cc3)c3c(N)ncnc3n2C)c1 [Example 1030] | < 100 | ≤ 100 | 
44 | C=C(C)C(=O)Nc1ccc(-c2c(C3=CC[C@@H](C(=O)N4CC[C@@H]5C[C@@H]54)CC3)c3c(N)ncnc3n2C)cc1 [Example 1037] | < 100 | 250 to 1000 | 
45 | C#Cc1ccc(-c2c(-c3ccc(C(=O)N4CCCC4)cc3)c3c(N)ncnc3n2C)cn1 [Example 1040] | 1000 to 100000 | 250 to 1000 | 
46 | Cc1ccnc(Oc2ccc(-c3c(-c4ccc(NC(=O)/C=C/CN(C)C)cc4)n(C)c4ncnc(N)c34)cc2)n1 [Example 1041] | 100 to 250 | ≤ 100 | 
47 | C=C(CN(C)C)C(=O)Nc1ccc(-c2c(-c3ccc(C(=O)NCC4(F)COC4)cc3)c3c(N)ncnc3n2C)cc1 [Example 1044] | < 100 | ≤ 100 | 
48 | C=CC(=O)N1CCCc2c1nc(-c1c(-c3ccc(Oc4nccc(C)n4)cc3)c3c(N)ncnc3n1C)n2C [Example 1045] | 1000 to 100000 | 1000 to 100000 | 
49 | C=C(C)C(=O)Nc1ccc(-c2c(-c3ccc(C(=O)NCC4CCC4)c(OC)c3)c3c(N)ncnc3n2C)cc1 [Example 1046] | 1000 to 100000 | 1000 to 100000 | 
50 | C=C(C)C(=O)Nc1ccc(-c2c(C3=CCC(S(=O)(=O)C4CCCC4)CC3)c3c(N)ncnc3n2C)cc1 (stereo not drawn) [Example 1047] | 250 to 1000 | 250 to 1000 | 
51 | C=Cc1nc2ccc(-c3c(-c4ccc(Oc5nccc(C)n5)cc4)c4c(N)ncnc4n3C)cc2[nH]1 [Example 1048] | 250 to 1000 | 100 to 250 | 
52 | C=CC(=O)Nc1ccc(-c2c(-c3ccc(Oc4cccc(C)n4)cc3)c3c(N)ncnc3n2C)cc1 [Example 1050] | 250 to 1000 | 250 to 1000 | 
53 | C#Cc1ncc(-c2ccc(-c3c(-c4ccc(Oc5nccc(C)n5)cc4)c4c(N)ncnc4n3C)cc2)o1 [Example 1052] | 1000 to 100000 | 1000 to 100000 | 
54 | C=CC(=O)Nc1ccc(-c2c(-c3ccc(Oc4cccc(C)n4)c(F)c3)c3c(N)ncnc3n2C)cc1 [Example 1053] | 100 to 250 | 250 to 1000 | 
55 | C=CC(=O)Nc1ccc(-c2c(-c3ccc(Oc4nccc(C)n4)cc3)c3c(N)ncnc3n2C)c(Cl)c1 [Example 1054] | < 100 | ≤ 100 | 
56 | C=C(C)C(=O)Nc1ccc(-c2c(C3=CC[C@@H](C(=O)N4CCC[C@@H]4C4CC4)CC3)c3c(N)ncnc3n2C)cc1 [Example 1055] | < 100 | ≤ 100 | 
57 | C=C(C)C(=O)Nc1ccc(-c2c(C3=CC[C@@H](C(=O)N4CCC[C@H]4C4CC4)CC3)c3c(N)ncnc3n2C)cc1 [Example 1056] | 250 to 1000 | ≤ 100 | 
